{"source": "patent US8680010B2", "about": "“Synergistic herbicidal composition containing penoxsulam and florasulam” (Dow AgroSciences, LLC., priority 2011, dated 2014)", "type_in_all_cases": "in vivo", "key": {"[1]": {"tested_on": "horseweed (Conyza canadensis (L.) Cronq.)", "test": "Field weed control by penoxsulam plus florasulam, ERICA", "details": "99-175 DAA", "protocol": "(§1) Field trials were conducted in olive tree crops in Spain using standard herbicide small plot research methodology. Plot size was typical for small plot research in tree crops, varying from 4 to 10 meters (m) wide by 4 to 10 m long. […] Soil types ranged from coarse to medium to fine soil texture. Perennial olive crops were transplanted by hand into orchards as per normal local cultural practices. The olive crop was grown using normal cultural practices for fertilization, watering and maintenance to ensure good growth of the crop and the weeds.\n(§2) Treatments were applied by backpack sprayer using either compressed air or CO2, at spray pressures at 300 kilopascals (kPa). Spray tips were typically Flat Fan Teejet nozzles, such as FanJet 120 or Teejet 11003 VP. Spray volumes were approximately 300 liters per hectare (L/ha). […]\n(§3) For each treatment, the appropriate formulated product amount to treat the plot area, to achieve the desired application rate, based on unit area of application (hectare), was calculated, measured, and mixed in water prior to applying with the backpack sprayer […]"}, "[2]": {"tested_on": "henbit (Lamium amplexicaule L.)", "test": "Field weed control by penoxsulam plus florasulam, LAMAM", "details": "30-45 DAA", "protocol": "as §1\n(§4) Treatments were applied by backpack sprayer using either compressed air or CO2, at spray pressures at 300 kilopascals (kPa). Spray tips were typically Flat Fan Teejet nozzles, such as FanJet 120 or Teejet 11003 VP. Spray volumes were approximately 300 liters per hectare (L/ha). The weed spectrum included, but was not limited to, chamomile, (Anthemis cotula L., […]), field marigold (Calendula arvensis, CLDAR), henbit (Lamium amplexicaule L, LAMAM), annual sowthistle (Sonchus oleraceus L., SONOL), common mallow (Malva neglecta Wallr., MALNE), corn salad (Valerianella echinata, VLLEC), horseweed (Conyza canadensis (L.) Cronq., ERICA), field madder (Sherardia arvensis L., SHRAR), and sowthistle (Sonchus species, SONSS). Treatments were applied preemergence or early postemergence to the stage of the weeds. Olive tree spacings were typically rows that were 7 to 8 m apart, and trees in the row were from 4 to 6 m apart.\n(§5) For each treatment, the appropriate formulated product amount to treat the plot area, to achieve the desired application rate, based on unit area of application (hectare), was calculated, measured, and mixed in water prior to applying with the backpack sprayer\n(§6) Treatments were rated as compared to the untreated control plots.\n(§7) The treated plots and control plots were rated blind at various intervals after application. Ratings were based of Percent (%) Visual weed control, where 0 corresponds to no injury and 100 corresponds to complete kill.\n(§8) The following equation was used to calculate the expected activity of mixtures containing two active ingredients, A and B: Expected=A+B−(A×B/100)\n(§9) A=observed efficacy of active ingredient A at the same concentration as used in the mixture;\n(§10) B=observed efficacy of active ingredient B at the same concentration as used in the mixture."}, "[3]": {"tested_on": "common mallow (Malva neglecta Wallr.)", "test": "Field weed control by penoxsulam plus florasulam, MALNE", "details": "90 DAA", "protocol": "as §1, §2, §3"}, "[4]": {"tested_on": "sowthistle (Sonchus species)", "test": "Field weed control by penoxsulam plus florasulam, SONSS", "details": "99-175 DAA", "protocol": "as §1, §2, §3"}, "[5]": {"tested_on": "chamomile, mayweed (Anthemis cotula L.)", "test": "Field weed control by penoxsulam plus florasulam, ANTCO", "details": "30-45 DAA", "protocol": "as §1, §4, §5, §6, §7, §8, §9, §10"}, "[6]": {"tested_on": "annual sowthistle (Sonchus oleraceus L.)", "test": "Field weed control by penoxsulam plus florasulam, SONOL", "details": "30-45 DAA", "protocol": "as §1, §4, §5, §6, §7, §8, §9, §10"}, "[7]": {"tested_on": "field marigold (Calendula arvensis)", "test": "Field weed control by penoxsulam plus florasulam, CLDAR", "details": "30-45 DAA", "protocol": "as §1, §2, §3"}, "[8]": {"tested_on": "corn salad (Valerianella echinata)", "test": "Field weed control by penoxsulam plus florasulam, VLLEC", "details": "90 DAA", "protocol": "as §1, §4, §5, §6, §7, §8, §9, §10"}, "[9]": {"tested_on": "field madder (Sherardia arvensis L.)", "test": "Field weed control by penoxsulam plus florasulam, SHRAR", "details": "99-175 DAA", "protocol": "as §1, §2, §3"}}, "data": [{"compound": "COc1ncc(F)c2nc(S(=O)(=O)Nc3c(F)cccc3F)nn12", "note": "[Florasulam, N-(2,6-difluorophenyl)-8-fluoro-5-methoxy[1,2,4]-triazolo[1,5-c]pyrimidine-2-sulfonamide]", "values": [{"measurement": "% Control ERICA Obs", "setting": "[1]; florasulam 7.5 gai/ha", "result": 51, "unit": "%"}, {"measurement": "% Control LAMAM Obs", "setting": "[2]; florasulam 5 gai/ha", "result": 5, "unit": "%"}, {"measurement": "% Control LAMAM Obs", "setting": "[2]; florasulam 6.3 gai/ha", "result": 30, "unit": "%"}, {"measurement": "% Control LAMAM Obs", "setting": "[2]; florasulam 7.5 gai/ha", "result": 30, "unit": "%"}, {"measurement": "% Control MALNE Obs", "setting": "[3]; florasulam 5 gai/ha", "result": 50, "unit": "%"}, {"measurement": "% Control SONSS Obs", "setting": "[4]; florasulam 7.5 gai/ha", "result": 8, "unit": "%"}, {"measurement": "% Control ANTCO Obs", "setting": "[5]; florasulam 5 gai/ha", "result": 50, "unit": "%"}, {"measurement": "% Control ANTCO Obs", "setting": "[5]; florasulam 6.3 gai/ha", "result": 69, "unit": "%"}, {"measurement": "% Control ANTCO Obs", "setting": "[5]; florasulam 7.5 gai/ha", "result": 95, "unit": "%"}, {"measurement": "% Control SONOL Obs", "setting": "[6]; florasulam 5 gai/ha", "result": 50, "unit": "%"}, {"measurement": "% Control SONOL Obs", "setting": "[6]; florasulam 6.3 gai/ha", "result": 60, "unit": "%"}, {"measurement": "% Control SONOL Obs", "setting": "[6]; florasulam 7.5 gai/ha", "result": 60, "unit": "%"}, {"measurement": "% Control CLDAR Obs", "setting": "[7]; florasulam 5 gai/ha", "result": 40, "unit": "%"}, {"measurement": "% Control VLLEC Obs", "setting": "[8]; florasulam 5 gai/ha", "result": 10, "unit": "%"}, {"measurement": "% Control VLLEC Obs", "setting": "[8]; florasulam 6.3 gai/ha", "result": 10, "unit": "%"}, {"measurement": "% Control SHRAR Obs", "setting": "[9]; florasulam 7.5 gai/ha", "result": 0, "unit": "%"}]}, {"compound": "COc1cnc(OC)n2nc(NS(=O)(=O)c3c(OCC(F)F)cccc3C(F)(F)F)nc12", "note": "[Penoxsulam]", "values": [{"measurement": "% Control ERICA Obs", "setting": "[1]; penoxsulam 20 gai/ha", "result": 23, "unit": "%"}, {"measurement": "% Control LAMAM Obs", "setting": "[2]; penoxsulam 10 gai/ha", "result": 0, "unit": "%"}, {"measurement": "% Control LAMAM Obs", "setting": "[2]; penoxsulam 13 gai/ha", "result": 0, "unit": "%"}, {"measurement": "% Control LAMAM Obs", "setting": "[2]; penoxsulam 15 gai/ha", "result": 4, "unit": "%"}, {"measurement": "% Control MALNE Obs", "setting": "[3]; penoxsulam 10 gai/ha", "result": 8, "unit": "%"}, {"measurement": "% Control SONSS Obs", "setting": "[4]; penoxsulam 20 gai/ha", "result": 53, "unit": "%"}, {"measurement": "% Control ANTCO Obs", "setting": "[5]; penoxsulam 10 gai/ha", "result": 0, "unit": "%"}, {"measurement": "% Control ANTCO Obs", "setting": "[5]; penoxsulam 13 gai/ha", "result": 5, "unit": "%"}, {"measurement": "% Control ANTCO Obs", "setting": "[5]; penoxsulam 15 gai/ha", "result": 5, "unit": "%"}, {"measurement": "% Control SONOL Obs", "setting": "[6]; penoxsulam 10 gai/ha", "result": 0, "unit": "%"}, {"measurement": "% Control SONOL Obs", "setting": "[6]; penoxsulam 13 gai/ha", "result": 2, "unit": "%"}, {"measurement": "% Control SONOL Obs", "setting": "[6]; penoxsulam 15 gai/ha", "result": 5, "unit": "%"}, {"measurement": "% Control CLDAR Obs", "setting": "[7]; penoxsulam 10 gai/ha", "result": 5, "unit": "%"}, {"measurement": "% Control VLLEC Obs", "setting": "[8]; penoxsulam 10 gai/ha", "result": 80, "unit": "%"}, {"measurement": "% Control VLLEC Obs", "setting": "[8]; penoxsulam 13 gai/ha", "result": 80, "unit": "%"}, {"measurement": "% Control SHRAR Obs", "setting": "[9]; penoxsulam 20 gai/ha", "result": 0, "unit": "%"}]}]}
